# Reference: patent US6749840B2, “Inhibition of pigmentation by inhibition of fatty acid synthase” (New York University, priority 2001, dated 2004)
# System: Melan-a melanocytes
# Assay: Assay for melanin production in melan-a melanocytes (absorbance of melanin at 490 nm per protein)
# Assay type: cell-based, mice
# Settings: at 3 μM; average; results of FIG. 1
# Procedure: Melan-a melanocytes (α/α, P/P), an immortalized melanocyte line derived from C57BLI6J mice wild type at the p locus (Bennett et al. (1987), Int. J. Cancer 39:414-418), were incubated in Dulbecco's modification of Eagle's medium (DMEM: 10% fetal calf serum, 2 mM L-glutamine, 1 mM sodium pyruvate, 1% MEM non-essential amino acids 100×, […]). Immediately before using the medium, tetradecanoyl phorbol acetate (TPA) was added at 200 nM. Cells were seeded in T-25 flasks with 4×10^4 cells/ml×4.5 ml/flask (10-20% confluent) and were grown at 37° C. with 5% CO2. Twenty-four hours later, a compound to be tested (diluted in 0.5 ml media) was added to the media. Forty-eight hours after the addition of drug, both the media and drug were changed. Cells were harvested after an additional 48 or 72 hours (100% confluent). In harvesting the cells, the reagents and cells were kept at 4° C. Briefly, the media was removed from the cells, and one milliliter of media was reserved if needed for the tyrosinase assay. The cells were then rinsed with approximately 500 μl cold 1×phosphate buffered saline (PBS) until the PBS rinse was clear. […] 2 N NaOH in 20% DMSO was used as a blank, and the samples were read at a wavelength of 490 nm. The data were reported as absorbance of melanin per protein calculated for the total sample. […]
smiles,measurement,value
"C/C=C/C/C=C/CCC(=O)[C@H]1O[C@H]1C(N)=O [cerulenin, [2R,3S]-2,3-epoxy-4-oxo-7,10-trans, trans-dodecanoic acid amide]",decrease of pigmentation in melan-a melanocytes,50%
